From US20240335462A1, “SULFUR/PHOSPHORUS-CONTAINING ARYL COMPOUND AND APPLICATION THEREOF” (MEDSHINE DISCOVERY INC., priority 2021, published 2024)
Like-named read-outs stand apart in the source and are kept apart here. Marks after values point to notes of the source that are not given here.

Tests used:
[1] = Pharmacokinetic testing in rats; assay type: in vivo, male SD rats; conditions: rat; for AUC(0-t): read-out: Area under the curve AUC0-last; for C0: read-out: Starting concentration C0; for Cmax: read-out: Peak concentration Cmax
Protocol: The objective was to study the pharmacokinetic behavior of the compound of the present disclosure in rats and evaluate the pharmacokinetic characteristics, using male SD rats aged 7 to 9 weeks as test animals. The drug concentrations in plasma at different time points after a single intravenous injection (IV) and oral administration (P0) of the compound were determined using LC/MS/MS.
The pharmacokinetic characteristics of the compound in rodents following intravenous injection and oral administration were tested using a standard protocol. Test animals were fasted for 10 to 14 hours before administration and allowed to feed 4 hours post-administration. The compound was prepared into a clear solution with the appropriate solvent for both IV (intravenous injection) and PO (oral gavage) administration. The solvent was […]+10% solutol+80% (10% HP-β-CD aqueous solution). Whole blood samples were collected within 24 hours, centrifuged at 6000 g for 3 minutes, and the supernatant was separated to obtain plasma samples. Protein precipitation was performed by adding four times the volume of acetonitrile solution containing internal standard to the plasma samples. After centrifugation, the supernatant was added with an equal volume of water and then centrifuged before being subjected to LC-MS/MS analysis for quantifying plasma drug concentration. Pharmacokinetic parameters such as peak concentration, time to peak concentration, clearance, half-life, area under the drug-time curve, and bioavailability were calculated.

[2] = tested on: IL-23-induced psoriasis-like skin lesions; assay: Mouse psoriasis-like model induced by IL-23; assay type: in vivo, C57BL/6 mice; parameters: Total score for epidermal hyperplasia of ear pinnae / AUC of total score for epidermal hyperplasia of ear pinnae / Pathological score: Degree of keratinization / Pathological score: Epidermal thickness / Pathological score: Dermal thickness / Pathological score: Inflammatory cell infiltration / Comprehensive pathological score: scale not given here; conditions: for AUC of total score for epidermal hyperplasia of ear pinnae: Day 0 to Day 8; for Comprehensive pathological score / Pathological score: Degree of keratinization / Pathological score: Dermal thickness / Pathological score: Epidermal thickness / Pathological score: Inflammatory cell infiltration: right ear H&E sections
From the text: The purpose of this experiment was to evaluate the prophylactic and therapeutic effect of the test substance on IL-23-induced psoriasis-like skin lesions in mice by intradermal injection of IL-23 into the ear pinnae in a psoriasis-like skin lesion model.
Female C57BL/6 mice of qualified body weight were randomly divided into groups, with 6 mice per group. The grouping and administration information was as follows. The groups were: blank control group, model group, positive control Ustekinumab (5 mg/kg) group, WX-011A hydrochloride (30, 50 mg/kg) group, and WX-020 sulfate (30, 50 mg/kg) group. Except for the blank control group, the animals in the other groups received an intradermal injection of IL-23 (3 μg/10 μL/mouse/day, QD) in the right ear for 8 consecutive days (Day 0 to Day 7). The blank control group received an intradermal injection of an equal volume of saline solution (10 μL/mouse/day, QD) in the right ear for 8 consecutive days (Day 0 to Day 7). Concurrent with model induction, the solvent or test drug was orally administered twice a day (Bid) at 6-hour intervals for 8 consecutive days (Day 0 to Day 7). The positive control was subcutaneously injected on Day 0 and Day 3 (a total of 2 doses). During the administration period, the body weight of the animals was monitored every two days. On Day 0, Day 2, Day 4, Day 6 (all before IL-23 injection), and Day 8, the thickness of the right ear of the mice was measured, and the appearance of the ear pinnae was observed and scored.
The compounds were all prepared into a clear solution with 10% DMSO+[…] as a solvent for PO (oral gavage) administration. Administration volume parameters: 10 mL/kg based on the body weight of the mice.
After grouping, IL-23 (3 μg/10 μL/mouse/day, QD) was injected intradermally into the right ears of the mice for 8 consecutive days (Day 0 to Day 7). Measurements of the thickness of the right ear and observations and scoring of the appearance of the ear pinnae were performed on Day 0, Day 2, Day 4, Day 6 (all before IL-23 injection), and Day 8. At the end of the experiment (Day 8), the left ear tissues of the mice from groups G4 to G10 (3 animals per group at each time point) were collected. The right ear, which had been modeled, was excised, an 8 mm ear punch was taken along the edge of the pinna, and its weight was measured. The excised right ear tissues were fixed in formalin for histopathological examination (H&E staining).
Concurrent with model induction, corresponding drug treatment was given for administration. Except for the positive control drug (Ustekinumab), which was subcutaneously injected on Day 0 and Day 3 (once a day), control and test drugs for each dose group were orally administered by gavage twice a day at 6-hour intervals for 8 consecutive days (Day 0 to Day 7).
The pathological scoring of mouse ear tissue sections was conducted according to the criteria in Table 33.
The experimental data are represented as Mean±SD; statistical analysis was performed using IBM SPSS Statistics 21, with p<0.05 considered to indicate a statistically significant difference between the two groups. The effect of the test substance on the thickness of mouse ears in the IL-23 induced mouse pinna epidermal hyperplasia model is shown in Table 34. The effect of the test substance on the total score and AUC for […] induced mouse pinna epidermal hyperplasia is shown in Table 35.

## CNC(=O)c1cnc(NC(=O)C2CC2)cc1Nc1cccc(-c2ccc(S(=O)(=O)C(C)C)cn2)c1OC [WX-020]
[1]; male, SD, plasma, IV 3 mg/kg, read-out: Apparent volume of distribution Vd
  Vd: 0.9 L/kg
[1]; male, SD, plasma, IV 3 mg/kg
  AUC(0-t): 2.61 µM·h
  C0: 3.03 µM
[1]; male, SD, plasma, IV 3 mg/kg, read-out: Half-life T1/2 (converted)
  half-life: 54 min
[1]; male, SD, plasma, PO 10 mg/kg
  AUC(0-t): 9.76 µM·h
  Cmax: 3.38 µM
[1]; male, SD, plasma, PO 10 mg/kg, read-out: Bioavailability F%
  bioavailability: 39%
[1]; male, SD, plasma, PO 10 mg/kg, read-out: Time to peak concentration Tmax
  Tmax: 48 min
[1]; IV 3 mg/kg
  Apparent clearance Cl: 13.1 mL/min/kg

## CNC(=O)c1nnc(NC(=O)C2CC2)cc1Nc1cccc(-c2ncc(S(=N)(=O)C(C)C)cn2)c1OC.Cl (single isomer, unassigned) [Hydrochloride of WX-011A]
[1]; IV 1 mg/kg
  Apparent clearance Cl: 16.8 mL/min/kg
  Apparent volume of distribution Vd: 0.5 L/kg
  Area under the curve AUC0-last: 2.075 µM·h
  Half-life T1/2: 36 min
  C0: 4.54 µM
[1]; PO 10 mg/kg
  Area under the curve AUC0-last: 8.202 µM·h
  Bioavailability F %: 41%
  Time to peak concentration Tmax: 30 min
  Cmax: 4.39 µM
[2]; 30 mg/kg PO BID, Day 0
  Ear thickness (mm): 0.199 mm
  Total score for epidermal hyperplasia of ear pinnae: 0.00
[2]; 30 mg/kg PO BID
  AUC of total score for epidermal hyperplasia of ear pinnae: 3.17**
  Comprehensive pathological score: 1.17**
  Pathological score: Degree of keratinization: 0.17**
  Pathological score: Dermal thickness: 0.17
  Pathological score: Epidermal thickness: 0.67**
  Pathological score: Inflammatory cell infiltration: 0.17**
[2]; 30 mg/kg PO BID, Day 2
  Ear thickness (mm): 0.274* mm
  Total score for epidermal hyperplasia of ear pinnae: 0.00
[2]; 30 mg/kg PO BID, Day 4
  Ear thickness (mm): 0.299* mm
  Total score for epidermal hyperplasia of ear pinnae: 0.33*
[2]; 30 mg/kg PO BID, Day 6
  Ear thickness (mm): 0.297** mm
  Total score for epidermal hyperplasia of ear pinnae: 0.67**
[2]; 30 mg/kg PO BID, Day 8
  Ear thickness (mm): 0.301** mm
  Total score for epidermal hyperplasia of ear pinnae: 1.17**
[2]; 50 mg/kg PO BID, Day 0
  Ear thickness (mm): 0.197 mm
  Total score for epidermal hyperplasia of ear pinnae: 0.00
[2]; 50 mg/kg PO BID
  AUC of total score for epidermal hyperplasia of ear pinnae: 2.67**
  Comprehensive pathological score: 1.83**
  Pathological score: Degree of keratinization: 0.33**
  Pathological score: Dermal thickness: 0.50
  Pathological score: Epidermal thickness: 0.50**
  Pathological score: Inflammatory cell infiltration: 0.50**
[2]; 50 mg/kg PO BID, Day 2
  Ear thickness (mm): 0.279^p=0.081 mm
  Total score for epidermal hyperplasia of ear pinnae: 0.00
[2]; 50 mg/kg PO BID, Day 4
  Ear thickness (mm): 0.291 * mm
  Total score for epidermal hyperplasia of ear pinnae: 0.17**
[2]; 50 mg/kg PO BID, Day 6
  Ear thickness (mm): 0.299** mm
  Total score for epidermal hyperplasia of ear pinnae: 0.67**
[2]; 50 mg/kg PO BID, Day 8
  Ear thickness (mm): 0.300** mm
  Total score for epidermal hyperplasia of ear pinnae: 1.00*

## CNC(=O)c1cnc(NC(=O)C2CC2)cc1Nc1cccc(-c2ccc(S(=O)(=O)C(C)C)cn2)c1OC.O=S(=O)(O)O [Sulfate of WX-020]
[2]; 30 mg/kg PO BID, Day 0
  Ear thickness (mm): 0.197 mm
  Total score for epidermal hyperplasia of ear pinnae: 0.00
[2]; 30 mg/kg PO BID
  AUC of total score for epidermal hyperplasia of ear pinnae: 7.67
  Comprehensive pathological score: 4.17**
  Pathological score: Degree of keratinization: 0.83**
  Pathological score: Dermal thickness: 1.33
  Pathological score: Epidermal thickness: 0.83**
  Pathological score: Inflammatory cell infiltration: 1.17**
[2]; 30 mg/kg PO BID, Day 2
  Ear thickness (mm): 0.283 mm
  Total score for epidermal hyperplasia of ear pinnae: 0.00
[2]; 30 mg/kg PO BID, Day 4
  Ear thickness (mm): 0.311 mm
  Total score for epidermal hyperplasia of ear pinnae: 0.50*
[2]; 30 mg/kg PO BID, Day 6
  Ear thickness (mm): 0.351** mm
  Total score for epidermal hyperplasia of ear pinnae: 2.5
[2]; 30 mg/kg PO BID, Day 8
  Ear thickness (mm): 0.343^p=0.082 mm
  Total score for epidermal hyperplasia of ear pinnae: 1.67*
[2]; 50 mg/kg PO BID, Day 0
  Ear thickness (mm): 0.195 mm
  Total score for epidermal hyperplasia of ear pinnae: 0.00
[2]; 50 mg/kg PO BID
  AUC of total score for epidermal hyperplasia of ear pinnae: 5.00*
  Comprehensive pathological score: 2.17**
  Pathological score: Degree of keratinization: 0.33**
  Pathological score: Dermal thickness: 0.50
  Pathological score: Epidermal thickness: 0.67**
  Pathological score: Inflammatory cell infiltration: 0.67**
[2]; 50 mg/kg PO BID, Day 2
  Ear thickness (mm): 0.289 mm
  Total score for epidermal hyperplasia of ear pinnae: 0.00
[2]; 50 mg/kg PO BID, Day 4
  Ear thickness (mm): 0.303* mm
  Total score for epidermal hyperplasia of ear pinnae: 0.50*
[2]; 50 mg/kg PO BID, Day 6
  Ear thickness (mm): 0.311** mm
  Total score for epidermal hyperplasia of ear pinnae: 1.33*
[2]; 50 mg/kg PO BID, Day 8
  Ear thickness (mm): 0.317** mm
  Total score for epidermal hyperplasia of ear pinnae: 1.33**
